The values below are quoted from earlier work in patent publication US11701318B2, “Process of dyeing keratinous material comprising the use of an organosilicon compound, an effect pigment, and a film-forming polymer I” (Henkel AG & Co. KGaA, priority 2019, dated 2023).

For this data set the following is noted: 25° C.
As for `CCN(Cc1cccc(S(=O)(=O)[O-])c1)c1ccc(C(=C2C=CC(=[N+](CC)Cc3cccc(S(=O)(=O)[O-])c3)C=C2)c2ccccc2S(=O)(=O)[O-])cc1.[Na+].[Na+]` [Acid Blue 9], the solubility in water entry is “more than 20 % by weight”.
For `O=S(=O)([O-])c1ccc(N=Nc2c(O)ccc3ccccc23)cc1.[Na+]` [Acid Orange 7, sodium salt of 4-[(2-hydroxy-1-naphthyl)azo]benzene sulphonate], the solubility in water entry was “more than 7 g/L”.
As to `Nc1cc(S(=O)(=O)[O-])cc2cc(S(=O)(=O)[O-])c(N=Nc3ccccc3)c(O)c12.[Na+].[Na+]` [Acid Red 33, disodium salt of 5-amino-4-hydroxy-3-(phenylazo)-naphthalene-2,7-disulphonate], the solubility in water is 2.5 mg/mL.
For the molecule `O=C([O-])c1c(Cl)c(Cl)c(Cl)c(Cl)c1-c1c2c(Br)cc(=O)c(Br)c-2oc2c(Br)c(O)cc(Br)c12.O=C([O-])c1c(Cl)c(Cl)c(Cl)c(Cl)c1-c1c2c(Br)cc(=O)c(Br)c-2oc2c(Br)c(O)cc(Br)c12.[Na+].[Na+]` [Acid Red 92, disodium salt of 3,4,5,6-tetrachloro-2-(1,4,5,8-tetrabromo-6-hydroxy-3-oxoxanthen-9-yl)benzoic acid], the solubility in water result is given as “greater than 10 g/L”.
In the case of `O=C([O-])C1=NN(c2ccc(S(=O)(=O)[O-])cc2)C(=O)C1N=Nc1ccc(S(=O)(=O)[O-])cc1.[Na+].[Na+].[Na+]` (stereo not drawn) [Acid Yellow 23, trisodium salt of 4,5-dihydro-5-oxo-1-(4-sulfophenyl)-4-((4-sulfophenyl)azo)-1H-pyrazole-3-carboxylic acid], the “solubility in water (in words)” value was “highly soluble in water”.
“mixture of the sodium salts of mono- and disulfonic acids of 2-(2-quinolyl)-1H-indene-1,3(2H)-dione [Acid Yellow 3]”: the solubility in water is 20 mg/mL.
